Measurements reported in patent publication US11918582B2 (RAPT Therapeutics, Inc., priority 2021, dated 2024).
Where a name gives a salt, the structure may show the parent alone.

Target: T1, human HPK1 (MAP4K1) (Homo sapiens, UniProt Q92918)
T1 construct: Recombinant human HPK1 kinase domain was obtained from ThermoFisher (Cat. #PV6357) and SignalChem (Cat. #M23-11G); purchased ThermoFisher; SignalChem PV6357; M23-11G
T1 sequence (Q92918 17-274 limits assumed): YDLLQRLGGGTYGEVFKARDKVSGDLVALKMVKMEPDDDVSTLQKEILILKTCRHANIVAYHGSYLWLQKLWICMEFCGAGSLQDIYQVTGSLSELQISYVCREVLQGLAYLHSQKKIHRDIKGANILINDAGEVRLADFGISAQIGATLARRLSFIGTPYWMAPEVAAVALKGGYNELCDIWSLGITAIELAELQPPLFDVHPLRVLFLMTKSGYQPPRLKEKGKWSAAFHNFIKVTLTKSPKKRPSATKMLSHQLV
Experiment: Biochemical assay for activity against HPK1 (ADP-Glo, MBP substrate)
Details: recombinant human HPK1 kinase domain, 1 nM enzyme, ADP-Glo luminescence
In short: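 IC50s come from ADP-Glo luminescence after a 2 h room-temperature reaction phosphorylating MBP in the presence of ATP. Compound was first preincubated 15 min with 1 nM HPK1 kinase domain, human recombinant. Buffer: 50 mM HEPES pH 7.5, 150 mM NaCl, 3 mM TCEP, 10 mM MgCl2, 0.005% Tween-20, 0.01% BSA.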

Compound | IC50 [nM]
CN1CCc2c(cc(Nc3ncc4cnn([C@H]5CC[C@H](O)CC5)c4n3)cc2C(F)(F)F)C1 [Example 58, (1r,4r)-4-(6-((2-methyl-5-(trifluoromethyl)-1,2,3,4-tetrahydroisoquinolin-7-yl)amino)-1H-pyrazolo[3,4-d]pyrimidin-1-yl)cyclohexan-1-ol] | < 100
CC(C)n1ncc2cnc(Nc3ccc4c(c3)CN(C)CC4)nc21 [Example 101, N-(1-isopropyl-1H-pyrazolo[3,4-d]pyrimidin-6-yl)-2-methyl-1,2,3,4-tetrahydroisoquinolin-7-amine] | < 100
COc1cc2c(cc1Nc1ncc3cnn(C[C@@H]4[C@@H](C)CCN4C(C)=O)c3n1)CN(C)CC2 (single isomer, unassigned) [Example 148] | < 100
COc1cc2c(cc1Nc1ncc3cnn([C@H]4C[C@H](CNS(C)(=O)=O)C4)c3n1)CN(C)CC2 [Example 121, N-((trans-3-(6-((6-methoxy-2-methyl-1,2,3,4-tetrahydroisoquinolin-7-yl)amino)-1H-pyrazolo[3,4-d]pyrimidin-1-yl)cyclobutyl)methyl)methanesulfonamide trifluoroacetate] | < 100
COc1cc2c(cc1Nc1ncc3cnn(C[C@@H]4CCC[C@H]4C(=O)O)c3n1)CN(C)CC2 [Example 157, (1R,2R)-2-[[6-[(6-methoxy-2-methyl-3,4-dihydro-1H-isoquinolin-7-yl)amino]pyrazolo[3,4-d]pyrimidin-1-yl]methyl]cyclopentanecarboxylic Acid] | < 100
COc1cc2c(cc1Nc1ncc3cnn(C[C@H]4CN(C(C)=O)CCO4)c3n1)CN(C)CC2 [Example 127, (R)-1-(2-((6-((6-methoxy-2-methyl-1,2,3,4-tetrahydroisoquinolin-7-yl)amino)-1H-pyrazolo[3,4-d]pyrimidin-1-yl)methyl)morpholino)ethan-1-one trifluoroacetate] | < 100
CN1CCc2ccc(Nc3ncc4cnn(C5CC6(COC6)C5)c4n3)cc2C1 [Example 13, N-(1-(2-oxaspiro[3.3]heptan-6-yl)-1H-pyrazolo[3,4-d]pyrimidin-6-yl)-2-methyl-1,2,3,4-tetrahydroisoquinolin-7-amine] | < 100
CNC(=O)[C@H]1CC[C@@H](n2nc(C)c3cnc(Nc4cc5c(cc4OC)CCN(C)C5)nc32)CC1 [Example 52, (cis)-4-(6-((6-methoxy-2-methyl-1,2,3,4-tetrahydroisoquinolin-7-yl)amino)-3-methyl-1H-pyrazolo[3,4-d]pyrimidin-1-yl)-N-methylcyclohexane-1-carboxamide] | < 100
COc1cc2c(cc1Nc1ncc3c(C)nn([C@H]4C[C@H](CNS(C)(=O)=O)C4)c3n1)CN(C)CC2 [Example 132, N-(((1r,3r)-3-(6-((6-methoxy-2-methyl-1,2,3,4-tetrahydroisoquinolin-7-yl)amino)-3-methyl-1H-pyrazolo[3,4-d]pyrimidin-1-yl)cyclobutyl)methyl)methanesulfonamide] | < 100
COc1cc2c(cc1Nc1ncc3cnn([C@H]4CC[C@H](O)CC4)c3n1)CNCC2 [Example 152, trans-4-(6-((6-methoxy-1,2,3,4-tetrahydroisoquinolin-7-yl)amino)-1H-pyrazolo[3,4-d]pyrimidin-1-yl)cyclohexan-1-ol] | < 100
COC(=O)N1CCC[C@H]1Cn1ncc2cnc(Nc3cc4c(cc3OC)CCN(C)C4)nc21 [Example 113, methyl (S)-2-((6-((6-methoxy-2-methyl-1,2,3,4-tetrahydroisoquinolin-7-yl)amino)-1H-pyrazolo[3,4-d]pyrimidin-1-yl)methyl)pyrrolidine-1-carboxylate trifluoroacetate] | < 100
COc1cc2c(cc1Nc1ncc3cnn([C@H]4CCC[C@H](O)C4)c3n1)CN(C)CC2 (racemic) [Example 44, rac-(trans)-3-(6-((6-methoxy-2-methyl-1,2,3,4-tetrahydroisoquinolin-7-yl)amino)-1H-pyrazolo[3,4-d]pyrimidin-1-yl)cyclohexan-1-ol] | < 100
CCOC(=O)Cn1ncc2cnc(Nc3ccc4c(c3)CN(C)CC4)nc21 [Example 9, Ethyl 2-[6-[(2-methyl-3,4-dihydro-1H-isoquinolin-7-yl)amino]pyrazolo[3,4-d]pyrimidin-1-yl]acetate] | < 100
CN1CCc2ccc(Nc3ncc4cnn(CCS(C)(=O)=O)c4n3)cc2C1 [Example 150, 2-methyl-N-(1-(2-(methylsulfonyl)ethyl)-1H-pyrazolo[3,4-d]pyrimidin-6-yl)-1,2,3,4-tetrahydroisoquinolin-7-amine] | < 100
COc1cc2c(cc1Nc1ncc3cnn(CCN(C)S(C)(=O)=O)c3n1)CN(C)CC2 [Example 92, N-[2-[6-[(6-methoxy-2-methyl-3,4-dihydro-1H-isoquinolin-7-yl)amino]pyrazolo[3,4-d]pyrimidin-1-yl]ethyl]-N-methyl-methanesulfonamide] | 100 to 250

Continued, values first:

IC50 [nM] | Compound
< 100 | COc1cc2c(cc1Nc1ncc3cnn(C[C@@H]4CCCN4C(C)=O)c3n1)[C@H](C)N(C)CC2 [Example 185, 1-((S)-2-((6-(((S)-6-methoxy-1,2-dimethyl-1,2,3,4-tetrahydroisoquinolin-7-yl)amino)-1H-pyrazolo[3,4-d]pyrimidin-1-yl)methyl)pyrrolidin-1-yl)ethan-1-one hydrochloride]
< 100 | COc1cc2c(cc1Nc1ncc3cnn(C[C@@H]4[C@@H](C)[C@H](O)CN4C(C)=O)c3n1)CN(C)CC2 [Example 164, 1-[(2S,3R,4R)-4-hydroxy-2-[[6-[(6-methoxy-2-methyl-3,4-dihydro-1H-isoquinolin-7-yl)amino]pyrazolo[3,4-d]pyrimidin-1-yl]methyl]-3-methyl-pyrrolidin-1-yl]ethenone]
< 100 | COc1cc2c(cc1Nc1ncc3cnn(C[C@@H]4CC[C@H](O)CN4C(C)=O)c3n1)CN(C)CC2 [Example 224, 1-((2S,5S)-5-hydroxy-2-((6-((6-methoxy-2-methyl-1,2,3,4-tetrahydroisoquinolin-7-yl)amino)-1H-pyrazolo[3,4-d]pyrimidin-1-yl)methyl)piperidin-1-yl)ethan-1-one]
< 100 | COc1nc2c(cc1Nc1ncc3cnn([C@@H]4CCC[C@@H](C(N)=O)C4)c3n1)CN(C)CC2 [Example 181, (1R,3R)-3-(6-((2-methoxy-6-methyl-5,6,7,8-tetrahydro-1,6-naphthyridin-3-yl)amino)-1H-pyrazolo[3,4-d]pyrimidin-1-yl)cyclohexane-1-carboxamide Mesylate]
< 100 | COc1cc2c(cc1Nc1ncc3cnn(C[C@@H]4CC[C@H](C)N4C(C)=O)c3n1)CN(C)CC2 [Example 171, 1-[(2S,5S)-2-[[6-[(6-methoxy-2-methyl-3,4-dihydro-1H-isoquinolin-7-yl)amino]pyrazolo[3,4-d]pyrimidin-1-yl]methyl]-5-methyl-pyrrolidin-1-yl]ethanone]
< 100 | COCCN1CCc2cc(OC)c(Nc3ncc4cnn(C[C@@H]5CCCN5C(C)=O)c4n3)cc2C1 [Example 197, (S)-1-(2-((6-((6-methoxy-2-(2-methoxyethyl)-1,2,3,4-tetrahydroisoquinolin-7-yl)amino)-1H-pyrazolo[3,4-d]pyrimidin-1-yl)methyl)pyrrolidin-1-yl)ethan-1-one Hydrochloride]
< 100 | COc1cc2c(cc1Nc1ncc3cnn(C[C@@H]4CCC[C@H]4C(N)=O)c3n1)CN(C)CC2 (racemic) [Example 159, racemic trans-2-[[6-[(6-methoxy-2-methyl-3,4-dihydro-1H-isoquinolin-7-yl)amino]pyrazolo[3,4-d]pyrimidin-1-yl]methyl]cyclopentanecarboxamide]
< 100 | COc1nc2c(cc1Nc1ncc3cnn(C[C@@H]4CCC(C)(C)N4C(C)=O)c3n1)CN(C)CC2 [Example 177, 1-[(5S)-5-[[6-[(2-methoxy-6-methyl-7,8-dihydro-5H-1,6-naphthyridin-3-yl)amino]pyrazolo[3,4-d]pyrimidin-1-yl]methyl]-2,2-dimethyl-pyrrolidin-1-yl]ethenone]
< 100 | COc1cc2c(cc1Nc1ncc3cnn(C[C@@H]4CCC(C)(C)N4C(C)=O)c3n1)CN(C)CC2 [Example 176, 1-[(5S)-5-[[6-[(6-methoxy-2-methyl-3,4-dihydro-1H-isoquinolin-7-yl)amino]pyrazolo[3,4-d]pyrimidin-1-yl]ymethyl]-2,2-dimethyl-pyrrolidin-1-yl]ethenone]
< 100 | COc1cc2c(cc1Nc1ncc3cnn(C[C@@H]4CCCN4C(C)=O)c3n1)CN(CCO)CC2 [Example 194, (S)-1-(2-((6-((2-(2-hydroxyethyl)-6-methoxy-1,2,3,4-tetrahydroisoquinolin-7-yl)amino)-1H-pyrazolo[3,4-d]pyrimidin-1-yl)methyl)pyrrolidin-1-yl)ethan-1-one]
< 100 | CN1CCc2c(cc(Nc3ncc4cnn([C@@H]5CCC[C@@H](C(N)=O)C5)c4n3)cc2C(F)(F)F)C1 [Example 180, (1R,3R)-3-(6-((2-methyl-5-(trifluoromethyl)-1,2,3,4-tetrahydroisoquinolin-7-yl)amino)-1H-pyrazolo[3,4-d]pyrimidin-1-yl)cyclohexane-1-carboxamide]
< 100 | COc1cc2c(cc1Nc1ncc3cnn(C[C@H]4C[C@H]4CO)c3n1)CN(C)CC2 (relative stereo) [Example 205, (cis-2-((6-((6-methoxy-2-methyl-1,2,3,4-tetrahydroisoquinolin-7-yl)amino)-1H-pyrazolo[3,4-d]pyrimidin-1-yl)methyl)cyclopropyl)methanol]
